Activity calls are given as the source filed them. Where only a bound is given, the exact number is not on record here.

The source of these data is ChEMBL document CHEMBL1201862, “PubChem BioAssay data set” (2004).

Among the targets are Cytochrome P450 2D6 (Homo sapiens, UniProt P10635); Cytochrome P450 3A4 (Homo sapiens, UniProt P08684); Cytochrome P450 2C9 (Homo sapiens, UniProt P11712).
The next series deals with T1, Protein skinhead-1 (Caenorhabditis elegans, UniProt P34707).
T1 sequence (P34707 whole entry): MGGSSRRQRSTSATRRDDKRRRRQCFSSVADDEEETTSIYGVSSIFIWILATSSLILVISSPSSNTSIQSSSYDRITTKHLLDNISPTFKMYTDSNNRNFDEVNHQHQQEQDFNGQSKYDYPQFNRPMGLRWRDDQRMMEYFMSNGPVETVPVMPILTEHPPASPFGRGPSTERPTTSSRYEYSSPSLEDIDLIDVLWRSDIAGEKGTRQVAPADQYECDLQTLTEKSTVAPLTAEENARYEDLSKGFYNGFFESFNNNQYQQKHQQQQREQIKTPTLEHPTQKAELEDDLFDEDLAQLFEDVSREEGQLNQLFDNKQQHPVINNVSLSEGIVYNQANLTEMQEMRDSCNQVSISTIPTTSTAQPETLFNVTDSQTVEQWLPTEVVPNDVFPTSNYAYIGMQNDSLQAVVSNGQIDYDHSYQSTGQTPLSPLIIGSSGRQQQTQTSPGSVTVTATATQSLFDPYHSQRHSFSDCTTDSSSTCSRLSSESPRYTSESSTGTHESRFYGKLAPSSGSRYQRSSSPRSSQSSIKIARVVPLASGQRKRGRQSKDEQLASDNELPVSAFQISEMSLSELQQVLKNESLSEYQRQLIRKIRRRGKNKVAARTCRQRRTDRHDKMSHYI
It is filed as functional.

A short description of a further series: cells. Format: functional.
Series [1] addresses T2, Carboxy-terminal domain RNA polymerase II polypeptide A small phosphatase 1 (Homo sapiens, UniProt Q9GZU7).
T2 sequence (Q9GZU7 whole entry): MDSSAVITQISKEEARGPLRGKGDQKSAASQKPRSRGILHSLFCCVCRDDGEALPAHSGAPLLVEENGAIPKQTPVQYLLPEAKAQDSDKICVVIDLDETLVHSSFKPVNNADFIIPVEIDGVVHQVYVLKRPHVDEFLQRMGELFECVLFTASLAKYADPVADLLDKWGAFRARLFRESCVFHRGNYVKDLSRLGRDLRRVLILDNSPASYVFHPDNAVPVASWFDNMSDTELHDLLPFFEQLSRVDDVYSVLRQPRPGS
Briefly: CTDSP1 inhibitors, concentration-response, biochemical, absorbance readout, ultra-high-throughput screen actives (AID 540297). Format: functional.

Series [2] deals with T3, Calpain-2 catalytic subunit (Sus scrofa, UniProt P43367).
T3 sequence (P43367 whole entry): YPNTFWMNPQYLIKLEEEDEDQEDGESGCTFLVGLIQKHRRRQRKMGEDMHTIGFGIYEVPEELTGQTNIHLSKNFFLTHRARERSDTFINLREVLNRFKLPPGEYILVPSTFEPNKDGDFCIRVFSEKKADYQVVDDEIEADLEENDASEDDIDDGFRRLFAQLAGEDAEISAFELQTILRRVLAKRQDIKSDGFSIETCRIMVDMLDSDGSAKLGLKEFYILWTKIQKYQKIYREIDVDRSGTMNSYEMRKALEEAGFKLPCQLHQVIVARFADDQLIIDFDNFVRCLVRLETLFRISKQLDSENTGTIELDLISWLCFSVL
Nature of the series: m-calpain protease blockers, concentration series – biochemical, fluorogenic peptide substrate, dose response (AID 1420). It is filed as functional.

The next series has as its target T4, Cytochrome P450 1A2 (Homo sapiens, UniProt P05177).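 Also: PubChem cytochrome P450 panel assay, CYP1A2 panel member.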
T4 sequence (P05177 whole entry): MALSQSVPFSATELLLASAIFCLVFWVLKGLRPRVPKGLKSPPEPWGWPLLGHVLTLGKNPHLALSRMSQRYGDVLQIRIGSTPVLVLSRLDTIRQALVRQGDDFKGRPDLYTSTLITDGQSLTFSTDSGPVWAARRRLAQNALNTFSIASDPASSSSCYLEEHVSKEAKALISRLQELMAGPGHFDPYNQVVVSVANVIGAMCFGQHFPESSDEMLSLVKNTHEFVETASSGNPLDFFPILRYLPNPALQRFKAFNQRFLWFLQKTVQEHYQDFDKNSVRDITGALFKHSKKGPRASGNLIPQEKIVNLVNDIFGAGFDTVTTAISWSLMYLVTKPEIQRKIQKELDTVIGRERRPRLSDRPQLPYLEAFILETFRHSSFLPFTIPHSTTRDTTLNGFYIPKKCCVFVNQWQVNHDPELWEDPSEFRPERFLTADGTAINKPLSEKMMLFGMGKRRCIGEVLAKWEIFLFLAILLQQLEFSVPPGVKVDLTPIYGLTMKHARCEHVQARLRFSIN

In another series the target is Cytochrome P450 2C19 (Homo sapiens, UniProt P33261). Nature of the series: Cytochrome panel assay with activity outcomes. Panel member name: p450-cyp2c19 Compounds with AC50 equal or less than 10 uM are considered active. It is filed as functional.
Series [3] relates to Streptococcus sp. 'group A'. Briefly: Streptococcus pyogenes SK(-)GAS viability under kanamycin – luminescence, BacTiterGlo, confirmation, counter-screen for streptokinase expression inhibitor project, dose response (AID 1900). Format: functional, organism-based.
The next series concerns Streptococcus. Briefly: GAS UMAA2166 growth inhibition – luminescence, BacTiterGlo, counter-screen for streptokinase expression inhibitor project, dose response (AID 1915).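 Also: potency for reduction of bacterial viability or growth.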 Format: functional, organism-based. For orientation: A counterscreen serves to expose hits that act by an unwanted route or on another target.
For another series, the target named is T5, Streptokinase A (Streptococcus pyogenes serotype M1, UniProt P10520).
T5 sequence (P10520 whole entry): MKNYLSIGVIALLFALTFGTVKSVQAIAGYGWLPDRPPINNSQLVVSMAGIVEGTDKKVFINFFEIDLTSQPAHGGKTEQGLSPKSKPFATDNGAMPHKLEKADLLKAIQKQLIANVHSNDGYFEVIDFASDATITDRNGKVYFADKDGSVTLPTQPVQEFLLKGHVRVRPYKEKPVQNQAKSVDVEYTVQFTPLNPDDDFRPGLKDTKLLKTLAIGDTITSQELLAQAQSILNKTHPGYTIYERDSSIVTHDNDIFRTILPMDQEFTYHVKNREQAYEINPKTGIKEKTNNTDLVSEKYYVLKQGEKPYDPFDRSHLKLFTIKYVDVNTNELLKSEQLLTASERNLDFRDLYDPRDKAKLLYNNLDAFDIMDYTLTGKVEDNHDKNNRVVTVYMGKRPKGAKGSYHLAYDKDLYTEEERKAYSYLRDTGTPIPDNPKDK
Briefly: viability-normalized secreted streptokinase activity reduction – plasminogen activation absorbance, OD405, dose response (AID 1914).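 Also: secreted streptokinase activity via plasminogen activation per viability signal from cell pellet.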 Format: functional, Streptococcus pyogenes M1 GAS.

Series [4] in a line: reduction of Shn3 3'UTR-driven luciferase in osteoblasts – cell-based, Clone20 osteoblasts, firefly luciferase, cherry-picked, dose response (AID 624132).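 Also: firefly luciferase luminescence from reporter carrying the Shn3 3'UTR in osteoblasts.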 Format: functional.
Series [5] is described as follows: Luminescence Cell-Based Dose Retest to Confirm Inhibitors of Cancer Stem Cells. [Related pubchem assays (depositor defined):AID2717, AID2721]. Format: functional. Particulars: Homo sapiens.

Sequence of Cytochrome P450 2C19 (P33261 whole entry): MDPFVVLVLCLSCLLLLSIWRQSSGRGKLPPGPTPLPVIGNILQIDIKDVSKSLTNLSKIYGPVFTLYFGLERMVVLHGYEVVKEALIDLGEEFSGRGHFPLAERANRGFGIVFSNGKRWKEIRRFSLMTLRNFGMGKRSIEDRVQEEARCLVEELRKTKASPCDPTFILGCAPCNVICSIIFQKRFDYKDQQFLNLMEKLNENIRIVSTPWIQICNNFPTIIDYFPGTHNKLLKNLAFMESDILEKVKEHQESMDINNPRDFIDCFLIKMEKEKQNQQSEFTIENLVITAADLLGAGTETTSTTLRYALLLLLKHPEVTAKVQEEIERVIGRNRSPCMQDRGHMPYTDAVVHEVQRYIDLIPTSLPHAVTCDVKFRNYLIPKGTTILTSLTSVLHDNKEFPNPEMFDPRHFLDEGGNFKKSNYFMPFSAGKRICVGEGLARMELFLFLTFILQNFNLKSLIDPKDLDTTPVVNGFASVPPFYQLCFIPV
Sequence of Cytochrome P450 3A4 (P08684 whole entry): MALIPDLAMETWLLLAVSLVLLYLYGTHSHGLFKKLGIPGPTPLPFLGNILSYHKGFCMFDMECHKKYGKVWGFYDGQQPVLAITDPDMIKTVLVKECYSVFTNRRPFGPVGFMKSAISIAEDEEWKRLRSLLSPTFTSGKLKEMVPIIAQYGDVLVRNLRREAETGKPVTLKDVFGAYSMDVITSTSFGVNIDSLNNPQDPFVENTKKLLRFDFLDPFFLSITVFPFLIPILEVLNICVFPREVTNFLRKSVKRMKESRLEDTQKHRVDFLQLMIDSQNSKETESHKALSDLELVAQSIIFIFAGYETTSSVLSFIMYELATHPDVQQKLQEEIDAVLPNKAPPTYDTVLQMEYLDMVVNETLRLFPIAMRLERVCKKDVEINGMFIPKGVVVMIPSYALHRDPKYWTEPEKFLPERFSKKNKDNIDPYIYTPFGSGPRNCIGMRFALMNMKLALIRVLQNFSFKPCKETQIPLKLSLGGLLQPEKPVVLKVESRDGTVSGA
Sequence of Cytochrome P450 2D6 (P10635 whole entry): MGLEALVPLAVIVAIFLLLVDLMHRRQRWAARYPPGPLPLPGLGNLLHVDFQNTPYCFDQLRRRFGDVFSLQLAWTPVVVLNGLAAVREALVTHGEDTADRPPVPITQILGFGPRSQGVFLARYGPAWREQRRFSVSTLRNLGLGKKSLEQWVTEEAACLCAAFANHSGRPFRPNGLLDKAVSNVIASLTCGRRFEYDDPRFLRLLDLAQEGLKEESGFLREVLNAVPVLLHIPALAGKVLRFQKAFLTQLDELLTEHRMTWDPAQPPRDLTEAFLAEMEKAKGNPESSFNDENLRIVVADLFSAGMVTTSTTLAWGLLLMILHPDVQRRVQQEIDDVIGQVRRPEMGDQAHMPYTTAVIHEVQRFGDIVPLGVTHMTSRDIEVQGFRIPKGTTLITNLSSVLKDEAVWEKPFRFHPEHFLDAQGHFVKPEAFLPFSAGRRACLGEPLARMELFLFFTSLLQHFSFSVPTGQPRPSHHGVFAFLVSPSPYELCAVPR
Sequence of Cytochrome P450 2C9 (P11712 whole entry): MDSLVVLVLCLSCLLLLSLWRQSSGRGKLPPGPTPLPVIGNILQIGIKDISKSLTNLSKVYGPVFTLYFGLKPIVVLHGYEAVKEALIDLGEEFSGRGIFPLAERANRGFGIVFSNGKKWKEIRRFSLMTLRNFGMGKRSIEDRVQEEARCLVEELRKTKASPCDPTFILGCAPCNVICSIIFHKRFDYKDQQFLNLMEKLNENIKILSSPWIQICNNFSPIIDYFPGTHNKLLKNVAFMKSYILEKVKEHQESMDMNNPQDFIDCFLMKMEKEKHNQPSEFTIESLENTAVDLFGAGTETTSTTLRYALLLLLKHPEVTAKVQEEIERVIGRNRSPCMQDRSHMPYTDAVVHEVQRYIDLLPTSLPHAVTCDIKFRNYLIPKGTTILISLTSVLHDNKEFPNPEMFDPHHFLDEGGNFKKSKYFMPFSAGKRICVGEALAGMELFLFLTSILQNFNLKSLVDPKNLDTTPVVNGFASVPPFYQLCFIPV

Consider `CCOc1ccc(Nc2ccc([N+](=O)[O-])c3nonc23)cc1`, for which the IC50 at Protein skinhead-1 was > 100 µM (inactive); in “cells” it was 5.59 µM (active).

Take `CN(C)c1ccc(-c2cncnc2NCc2cccs2)cc1`: the AC50 at Cytochrome P450 2D6 was 39.8 µM (inconclusive).

Regarding `Cc1ccn2c(=O)nc(SCC(=O)NCc3ccco3)nc2c1`, the IC50 in [1] is 10.8 µM (active).

With `O=C(O)CCNc1ccc(Cl)cc1`, the IC50 in series [1] was 16.9 µM (active).

As for `COc1ccc(C(NC(=O)c2ccc(-c3ccccc3)cc2)c2ccccc2)cc1` (stereo not given), the IC50 in series [2] was > 50 µM (not active).

Take `CN(CCc1ccccn1)C(=S)NC(=O)c1ccco1`: in [2], the IC50 is reported as 19 µM (not active).

Turning to `COc1ccc2[nH]cc(CCNc3ncnc4ccc(-c5ccc(C(=O)N(C)C)cc5)cc34)c2c1`, the AC50 on Cytochrome P450 2D6 was 25.1 µM (inconclusive); at Cytochrome P450 1A2, 12.6 µM (inconclusive).

On to `O=[N+]([O-])c1ccc2nc(-c3ccccc3)n(OCc3ccc(Cl)cc3)c2c1`, for which, in [1], the IC50 was 10.1 µM (active).

As to `O=C(CNC(=O)c1ccccc1)NCC(=O)OCc1ccc(Cl)cc1`, the AC50 was 20 µM (inconclusive) on Cytochrome P450 2D6, 20 µM (inconclusive) on Cytochrome P450 2C19 (read-out: AC50), 14.1 µM (inconclusive) at Cytochrome P450 3A4 and 0.1 µM (inconclusive) at Cytochrome P450 2C9.

In the case of `CNC(=O)c1c(NC(=O)c2ccc(N3C(=O)CCC3=O)cc2)sc2c1CCC(C)C2` (stereo not given), at Protein skinhead-1, the IC50 was > 100 µM (inactive). Besides, the EC50 in [3] was 20.7 µM (active); in the series on Streptococcus, 103 µM (active); on Streptokinase A it was > 150 µM (not active).

`Cc1ccc(C)c(N2CCN(S(=O)(=O)c3ccc4nc(O)ccc4c3)CC2)c1`: in [4], the AC50 is 24.2 µM (active).

With `Cc1ccc(CNC(=O)c2ccc3c(=O)n(CC4CCCO4)c(=S)[nH]c3c2)cc1` (stereo not given), the IC50 in series [2] is 1.19 µM (not active).

`CC(C)c1onc(C(=O)Nc2cccnc2Cl)c1[N+](=O)[O-]`: the IC50 in series [2] was 22.5 µM (not active).

Regarding `Cc1nc2cnc(Nc3ccccc3)nc2n(C)c1=O`, the results for the AC50 on Cytochrome P450 2D6, on Cytochrome P450 3A4 and at Cytochrome P450 2C9 were 39.8 µM (inconclusive), 15.8 µM (inconclusive) and 20 µM (inconclusive), respectively.

`COc1ccc(C2=Nc3cccc4cccc(c34)N2)cc1`: at Cytochrome P450 2D6, the AC50 was 1.41 µM (inconclusive).

`O=c1cc(N2CCCCC2)c(-c2ccccc2)nn1Cc1cccc(F)c1`: the IC50 in series [2] was > 50 µM (not active). In addition, the AC50 in series [5] is 4.74 µM (active).

Turning to `CC1(C)N=C(N)N=C(N)N1c1cccc(OCc2cccc([N+](=O)[O-])c2)c1`, the concentration at half-maximal activity (AC50) on Cytochrome P450 2D6 is 3.16 µM (inconclusive); on Cytochrome P450 1A2, 5.01 µM (inconclusive); on Cytochrome P450 2C19, “inconclusive”.

`Cc1ccc(Cl)cc1NC(=O)CSc1sc2c(O)cc(O)nc2c1C#N`: in [1], the IC50 is 4.49 µM (active).

`Cc1ccc(NC(=O)CSc2nsc(SCC(=O)Nc3ccc(C)cc3C)c2C#N)c(C)c1`: the IC50 in series [2] is > 50 µM (not active).

As to `O=C(O)[C@@H]1[C@@H]2C[C@H]3c4[nH]c5ccccc5c4CCN3C[C@@H]2CC[C@@H]1O`, the AC50 on Cytochrome P450 2D6 was 7.94 µM (inconclusive); on Cytochrome P450 1A2, 12.6 µM (inconclusive).

For the compound `Cc1c(Cl)cccc1NC(=O)CC1NCCNC1=O` (stereo not given), the IC50 on Protein skinhead-1 was > 100 µM (inactive). Moreover, the AC50 is 39.8 µM (inconclusive) at Cytochrome P450 2C19 (read-out: AC50) and 20 µM (inconclusive) on Cytochrome P450 3A4.

`O=C(Nc1ccccc1C(F)(F)F)NC1(C(=O)N2CCOCC2)CCCCC1`: the IC50 in [1] was 4.66 µM (active).

For the compound `O=C(O)c1cccc2c1C(=O)N(c1ccc3c(c1)Cc1ccccc1-3)C2=O`, the IC50 in series [1] is 7.59 µM (active).

`O=C(N/N=C/c1cc(Cl)cc([N+](=O)[O-])c1O)c1cc(-c2ccccn2)nc2ccccc12`: the IC50 in series [1] is 1.85 µM (active).

`CC(/C=C(\O)c1ccc(C)cc1)=N\c1cccc(O)c1`: in series [2], the IC50 is reported as 4.68 µM (not active).

Consider `O=C(N/N=C/c1cccnc1)c1ccc([N+](=O)[O-])cc1`, for which, at Cytochrome P450 2D6, the AC50 was 14.1 µM (inconclusive).

Consider `CSc1ccc(/C=N/NC(=O)c2cccc(Cl)c2)cc1`, for which the IC50 in series [1] is 13.4 µM (active).

As for `CCCN1CCc2cccc3c2[C@@H]1Cc1ccc(O)c(O)c1-3`, the AC50 is 10 µM (inconclusive) at Cytochrome P450 2D6 and 12.6 µM (inconclusive) on Cytochrome P450 3A4.

The term IC50 denotes the concentration at which inhibition is half-maximal. As a reminder, the AC50 is the midpoint of the concentration-response curve, whichever way the signal moves. The EC50 is the concentration needed to bring the measured effect to its halfway point.
